Laboratory results reported in PubChem BioAssay (NCI).
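Where inhibition never reached the appropriate level, the endpoint shown equals the highest concentration tested. Otherwise, values were interpolated linearly from a five-concentration, 48-hour dose response in 96-well plates. GI50: concentration for 50% inhibition of growth. TGI: concentration producing complete growth inhibition.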

What was measured:
Test in all cases: NCI anticancer screen, dose series, 48 h
786-0 renal = tested on: 786-0 renal
A498 renal = tested on: A498 renal
A549 NSCLC = tested on: A549 NSCLC
ACHN renal = tested on: ACHN renal
BT-549 breast = tested on: BT-549 breast
CAKI-1 renal = tested on: CAKI-1 renal
CCRF-CEM leukemia = tested on: CCRF-CEM leukemia
COLO 205 colon = tested on: COLO 205 colon
DU-145 prostate = tested on: DU-145 prostate
EKVX NSCLC = tested on: EKVX NSCLC
HCC-2998 colon = tested on: HCC-2998 colon
HCT-15 colon = tested on: HCT-15 colon
HL-60(TB) leukemia = tested on: HL-60(TB) leukemia
HOP-62 NSCLC = tested on: HOP-62 NSCLC
HOP-92 NSCLC = tested on: HOP-92 NSCLC
HS 578T breast = tested on: HS 578T breast
HT29 colon = tested on: HT29 colon
IGROV1 ovarian = tested on: IGROV1 ovarian
K-562 leukemia = tested on: K-562 leukemia
KM12 colon = tested on: KM12 colon
LOX IMVI melanoma = tested on: LOX IMVI melanoma
M14 melanoma = tested on: M14 melanoma
MALME-3M melanoma = tested on: MALME-3M melanoma
MCF7 breast = tested on: MCF7 breast
MDA-MB-231 breast = tested on: MDA-MB-231 breast
MDA-MB-435 = tested on: MDA-MB-435
MOLT-4 leukemia = tested on: MOLT-4 leukemia
NCI-H226 lung = tested on: NCI-H226 lung
NCI-H23 lung = tested on: NCI-H23 lung
NCI-H460 lung = tested on: NCI-H460 lung
NCI-H522 lung = tested on: NCI-H522 lung
NCI/ADR-RES ovarian = tested on: NCI/ADR-RES ovarian
OVCAR-3 ovarian = tested on: OVCAR-3 ovarian
OVCAR-4 ovarian = tested on: OVCAR-4 ovarian
OVCAR-5 ovarian = tested on: OVCAR-5 ovarian
OVCAR-8 ovarian = tested on: OVCAR-8 ovarian
PC-3 prostate = tested on: PC-3 prostate
RPMI-8226 leukemia = tested on: RPMI-8226 leukemia
RXF 393 renal = tested on: RXF 393 renal
SF-268 CNS = tested on: SF-268 CNS
SF-295 CNS = tested on: SF-295 CNS
SF-539 CNS = tested on: SF-539 CNS
SK-MEL-2 melanoma = tested on: SK-MEL-2 melanoma
SK-MEL-28 melanoma = tested on: SK-MEL-28 melanoma
SK-MEL-5 melanoma = tested on: SK-MEL-5 melanoma
SK-OV-3 ovarian = tested on: SK-OV-3 ovarian
SN12C renal = tested on: SN12C renal
SNB-19 CNS = tested on: SNB-19 CNS
SNB-75 CNS = tested on: SNB-75 CNS
SW-620 colon = tested on: SW-620 colon
T-47D breast = tested on: T-47D breast
TK-10 renal = tested on: TK-10 renal
U251 CNS = tested on: U251 CNS
UACC-257 melanoma = tested on: UACC-257 melanoma
UACC-62 melanoma = tested on: UACC-62 melanoma
UO-31 renal = tested on: UO-31 renal

SMILES: Clc1nc(Cl)c2ncn(C/C=C\COc3cccc(OC/C=C\Cn4cnc5c(Cl)nc(Cl)nc54)c3)c2n1
- GI50 (786-0 renal): > 100 µM
- TGI (786-0 renal): > 100 µM
- GI50 (A498 renal): > 100 µM
- TGI (A498 renal): > 100 µM
- GI50 (A549 NSCLC): > 100 µM
- TGI (A549 NSCLC): > 100 µM
- GI50 (ACHN renal): > 100 µM
- TGI (ACHN renal): > 100 µM
- GI50 (BT-549 breast): > 100 µM
- TGI (BT-549 breast): > 100 µM
- GI50 (CAKI-1 renal): > 100 µM
- TGI (CAKI-1 renal): > 100 µM
- GI50 (CCRF-CEM leukemia): 95.8 µM
- TGI (CCRF-CEM leukemia): > 100 µM
- GI50 (COLO 205 colon): > 100 µM
- TGI (COLO 205 colon): > 100 µM
- GI50 (DU-145 prostate): > 100 µM
- TGI (DU-145 prostate): > 100 µM
- GI50 (EKVX NSCLC): > 100 µM
- TGI (EKVX NSCLC): > 100 µM
- GI50 (HCC-2998 colon): > 100 µM
- TGI (HCC-2998 colon): > 100 µM
- GI50 (HCT-15 colon): > 100 µM
- TGI (HCT-15 colon): > 100 µM
- GI50 (HL-60(TB) leukemia): > 100 µM
- TGI (HL-60(TB) leukemia): > 100 µM
- GI50 (HOP-62 NSCLC): > 100 µM
- TGI (HOP-62 NSCLC): > 100 µM
- GI50 (HOP-92 NSCLC): > 100 µM
- TGI (HOP-92 NSCLC): > 100 µM
- GI50 (HS 578T breast): > 100 µM
- TGI (HS 578T breast): > 100 µM
- GI50 (HT29 colon): > 100 µM
- TGI (HT29 colon): > 100 µM
- GI50 (IGROV1 ovarian): > 100 µM
- TGI (IGROV1 ovarian): > 100 µM
- GI50 (K-562 leukemia): 53.8 µM
- TGI (K-562 leukemia): > 100 µM
- GI50 (KM12 colon): > 100 µM
- TGI (KM12 colon): > 100 µM
- GI50 (LOX IMVI melanoma): 19.3 µM
- TGI (LOX IMVI melanoma): 43.8 µM
- GI50 (M14 melanoma): > 100 µM
- TGI (M14 melanoma): > 100 µM
- GI50 (MALME-3M melanoma): > 100 µM
- TGI (MALME-3M melanoma): > 100 µM
- GI50 (MCF7 breast): > 100 µM
- TGI (MCF7 breast): > 100 µM
- GI50 (MDA-MB-231 breast): > 100 µM
- TGI (MDA-MB-231 breast): > 100 µM
- GI50 (MDA-MB-435): > 100 µM
- TGI (MDA-MB-435): > 100 µM
- GI50 (MOLT-4 leukemia): > 100 µM
- TGI (MOLT-4 leukemia): > 100 µM
- GI50 (NCI-H226 lung): 43.3 µM
- TGI (NCI-H226 lung): > 100 µM
- GI50 (NCI-H23 lung): > 100 µM
- TGI (NCI-H23 lung): > 100 µM
- GI50 (NCI-H460 lung): > 100 µM
- TGI (NCI-H460 lung): > 100 µM
- GI50 (NCI-H522 lung): > 100 µM
- TGI (NCI-H522 lung): > 100 µM
- GI50 (NCI/ADR-RES ovarian): > 100 µM
- TGI (NCI/ADR-RES ovarian): > 100 µM
- GI50 (OVCAR-3 ovarian): > 100 µM
- TGI (OVCAR-3 ovarian): > 100 µM
- GI50 (OVCAR-4 ovarian): > 100 µM
- TGI (OVCAR-4 ovarian): > 100 µM
- GI50 (OVCAR-5 ovarian): > 100 µM
- TGI (OVCAR-5 ovarian): > 100 µM
- GI50 (OVCAR-8 ovarian): > 100 µM
- TGI (OVCAR-8 ovarian): > 100 µM
- GI50 (PC-3 prostate): > 100 µM
- TGI (PC-3 prostate): > 100 µM
- GI50 (RPMI-8226 leukemia): > 100 µM
- TGI (RPMI-8226 leukemia): > 100 µM
- GI50 (RXF 393 renal): 48.8 µM
- TGI (RXF 393 renal): > 100 µM
- GI50 (SF-268 CNS): > 100 µM
- TGI (SF-268 CNS): > 100 µM
- GI50 (SF-295 CNS): > 100 µM
- TGI (SF-295 CNS): > 100 µM
- GI50 (SF-539 CNS): > 100 µM
- TGI (SF-539 CNS): > 100 µM
- GI50 (SK-MEL-2 melanoma): > 100 µM
- TGI (SK-MEL-2 melanoma): > 100 µM
- GI50 (SK-MEL-28 melanoma): > 100 µM
- TGI (SK-MEL-28 melanoma): > 100 µM
- GI50 (SK-MEL-5 melanoma): > 100 µM
- TGI (SK-MEL-5 melanoma): > 100 µM
- GI50 (SK-OV-3 ovarian): > 100 µM
- TGI (SK-OV-3 ovarian): > 100 µM
- GI50 (SN12C renal): > 100 µM
- TGI (SN12C renal): > 100 µM
- GI50 (SNB-19 CNS): > 100 µM
- TGI (SNB-19 CNS): > 100 µM
- GI50 (SNB-75 CNS): > 100 µM
- TGI (SNB-75 CNS): > 100 µM
- GI50 (SW-620 colon): > 100 µM
- TGI (SW-620 colon): > 100 µM
- GI50 (T-47D breast): 88.1 µM
- TGI (T-47D breast): > 100 µM
- GI50 (TK-10 renal): > 100 µM
- TGI (TK-10 renal): > 100 µM
- GI50 (U251 CNS): > 100 µM
- TGI (U251 CNS): > 100 µM
- GI50 (UACC-257 melanoma): > 100 µM
- TGI (UACC-257 melanoma): > 100 µM
- GI50 (UACC-62 melanoma): > 100 µM
- TGI (UACC-62 melanoma): > 100 µM
- GI50 (UO-31 renal): > 100 µM
- TGI (UO-31 renal): > 100 µM
